Source: patent US20180105863A1, “NEURAL STEM CELL THERAPY FOR OBESITY AND DIABETES” (ALBERT EINSTEIN COLLEGE OF MEDICINE, INC., priority 2012, published 2018)

System: hypothalamic Notch signaling
Test: Daily third-ventricle injection of DLL4 in obese mice implanted with DNIκBα-hNSC
Format: in vivo
Experimental: In vivo implantation of hNSC with Notch inhibition counteracts obesity-T2D: Hypothalamic hNSC implantation was performed to investigate whether Notch inhibition could mimic IKKβ/NF-κB inhibition in counteracting obesity and related metabolic disorders. This investigation was also rationalized by the data showing that Notch signaling was robust (indicated by the active form of Notch 1 protein) in Sox2-positie cells of HFD-fed mice but not chow-fed mice (FIG. 7E). In the experiment, C57BL/6 mice received mediobasal hypothalamic injections of GFP-hNSC which carried Notch 1-4 shRNAs vs. control shRNA, and were then maintained on HFD vs. chow feeding. […] Thus, inhibition of Notch signaling can recapitulate the effect of NF-κB inhibition in the NSC implantation with respect to counteraction against HFD-induced obesity and metabolic disorders. Finally, hNSC implantation was employed to assess the IKKβ/NF-κB-Notch connection which was established in vitro. […] Therefore, NSC implantation can, at least, primarily employ neurogenetic program to counteract against metabolic disease, although other associated factors (such as inflammatory changes) probably also participate primarily or secondarily.

In the case of “DLL4: Notch protein ligand DLL4, injected daily into the third ventricle”, the DNIκBα-hNSC induced neurogenesis (data not shown) is reported as “reversal of ^DNIκBα-hNSC induced neurogenesis”, the hypothalamic inflammation (data not shown) is reported as “not an induction of hypothalamic inflammation” and the “anti-obesity effect of DNIκBα-hNSC implantation” value (mice already obese via chronic HFD feeding) is reported as “significantly abolished the anti-obesity effect”.
